{
  "source": "patent US12661334B2",
  "about": "“Dietary butyrate and its uses” (SOCIETE DES PRODUITS NESTLE S.A., priority 2019, dated 2026)",
  "key": {"[1]": {"target": "T1, porcine pancreatic lipase (PPL) (Sus scrofa, UniProt P00591)", "T1 sequence (P00591 1-450)": "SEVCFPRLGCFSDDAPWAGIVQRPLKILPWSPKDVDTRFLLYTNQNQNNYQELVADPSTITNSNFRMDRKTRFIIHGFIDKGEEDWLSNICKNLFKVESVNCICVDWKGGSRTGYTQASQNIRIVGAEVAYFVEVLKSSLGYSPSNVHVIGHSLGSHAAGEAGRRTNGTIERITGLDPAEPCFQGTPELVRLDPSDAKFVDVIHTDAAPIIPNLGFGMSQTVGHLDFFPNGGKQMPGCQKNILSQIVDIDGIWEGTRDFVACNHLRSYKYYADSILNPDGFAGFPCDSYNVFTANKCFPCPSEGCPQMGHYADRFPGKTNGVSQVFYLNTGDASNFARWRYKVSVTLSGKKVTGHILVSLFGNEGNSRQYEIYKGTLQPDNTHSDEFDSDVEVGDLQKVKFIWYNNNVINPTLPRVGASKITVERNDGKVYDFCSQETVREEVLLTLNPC", "T1 sequence (P02703 23-112 partner)": "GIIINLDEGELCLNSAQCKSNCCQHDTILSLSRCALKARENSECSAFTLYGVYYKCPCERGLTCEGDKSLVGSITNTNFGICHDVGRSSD", "settings": "pig, 3 h, pH 11.5", "text": "Because many fatty acids are only partially ionised at pH 6.8, direct titration gives only partial picture of the extent of lipid digestion, instead back titration to pH 11.5 or GC-FAME analysis is required to estimate the full extent of digestion."}, "[2]": {"test_system": "rabbit gastric lipase (RGL) followed by porcine pancreatic lipase (PPL)", "method": "10 wt % oil in water emulsions stabilised by 0.3 wt % polyoxyethylene sorbitan mono-oleate (Tween® 80) were prepared by mixing the Tween 80 into the oil phase at 40° C., then mixing with the water phase using a magnetic stirrer. An emulsion was then created using a Hielscher UP 400S ultrasonic probe homogeniser equipped with a 5 mm diameter rod-like probe by applying 100% amplitude at 100% cycle for 2 minutes whilst the sample was cooled using ice water.\nThe lipid emulsion (2 mL) containing 200 mg of fat was subjected to gastrointestinal in vitro lipolysis. […] For gastric digestion, the sample was incubated for 90 minutes with 8.5 mL of simulated gastric fluid (SGF), which consisted of 150 mM NaCl, 450 U/mL pepsin, 18 U/mL rabbit gastric lipase at 37° C. and a pH of 5.5.\nThe intestinal digestion step was performed in the pH stat where the pH was kept constant at 6.8 by addition of NaOH (0.05 M). […] The intestinal digestion step starts when the temperature reaches 37±0.5° C. The pH was adjusted to pH 6.8 and after incubation of two minutes at this pH and temperature, a pancreatin solution (5 mM tris, 150 mM NaCl at pH 6.8) was added. The final composition of the intestinal fluid was 10 mM CaCl2, 12 mM mixed bile salts, 0.75 mM phospholipid, 150 mM NaCl and 4 mM tris(hydroxymethyl)aminomethane buffer. The intestinal digestion step was carried out for 3 hours in a titration manager from Radiometer. During the intestinal phase of digestion, the kinetics of digestion were followed using a pH-stat (TIM856, Radiometer) technique and expressed as titratable acid (rather than fatty acid) that was calculated by the equation: TA=VNaOH×0:05×1000\nTA: Total titratable acid released, mmol; VNaOH: volume of NaOH used to titrate the released acid in 3 h, mL."}},
  "data": [
    {"smiles": "CCCC(=O)OCC(COC(=O)CCC)OC(=O)CCC", "note": "[tributyrin]", "values": [
      {"measurement": "Extent of digestion", "setting": "[1]", "value": "101.5±0.9", "unit": "%"},
      {"measurement": "Total amount of acid released", "setting": "[2]; rabbit (gastric lipase), pig (pancreatic lipase), 3 h, pH 6.8", "value": "381 ± 20", "unit": "µmol"},
      {"measurement": "Initial lipolysis rate in SIF", "setting": "[2]; rabbit (gastric lipase), pig (pancreatic lipase), pH 6.8", "value": "44.1 ± 8.8", "unit": "µmol/min"},
      {"measurement": "Lipolysis by gastric lipase", "setting": "[2]; rabbit, 90 min, 19 mg/mL, pH 5.5", "value": "~60", "unit": "%"}
    ]}
  ]
}
